The text below walks through data of article PMC9775191, “A Subset Screen of the Compounds Australia Scaffold Library Identifies 7-Acylaminodibenzoxazepinones as Potent and Selective Hits for Anti-Giardia Drug Discovery” (Biomedicines, 2022).

Where only a bound is given, the exact number is not on record here.

In the first test the test system is G. duodenalis BRIS/91/HEPU/1279. The experiment in a line: Giardia dose response assay, assemblage B. It is filed as cell-based, Giardia duodenalis. The note with it: BRIS/91/HEPU/1279; 48 h; mean ± SD; read-out: IC50 Giardia (48 h). Here is the method:
In these assays, compounds were serially diluted (8–12-point doubling dilutions in technical duplicate) in DMSO control media, with all test wells inoculated with parasites (1.5 × 10^4 parasites for BRIS/91/HEPU/1279 and BRIS/91/HEPU/1279m1, or 3 × 10^3 parasites for BRIS/87/HEPU/713). […] All plates were sealed in culture chambers and gassed with 3% O2, 5% CO2 in N2 and incubated at 37 °C for 48 h, with parasites imaged and enumerated at 24 and 48 h. Growth inhibition was calculated as a percentage relative to vehicle controls minus any background as described above and IC50 values were determined using log-linear interpolation as previously described. […] Statistical comparison of IC50 values when required were performed using Student’s t-test.
In general, IC50 refers to the concentration that inhibits the measured activity by half. Regarding `COc1ccc(C(=O)Nc2ccc3c(c2)Oc2ccccc2C(=O)N3C)cc1OC` [SN00797646], the IC50 is over 8.6 µM.

The same test, now with this note: Giardia duodenalis, 48 h, BRIS/91/HEPU/1279; 48 h; mean ± SD; read-out: IC50 Giardia (48 h).
In the case of `Cc1ccc(NC(=O)c2oc3ccccc3c2NC(=O)c2ccccc2)cc1` [SN00785329], the IC50 was over 10 µM.
The same measure, in the same setting: the result for `COc1ccc(C(=O)Nc2ccc3c(c2)Oc2ccccc2C(=O)N3C)c(OC)c1` [SN00797635] reads over 10 µM; that for `Cc1ccc(N2CC(C(=O)Nc3ccc4c(c3)Oc3ccccc3C(=O)N4C)CC2=O)cc1C` (centres unmarked) [SN00797636], over 10 µM; that for `COc1cc(OC)cc(C(=O)Nc2ccc3c(c2)Oc2ccccc2C(=O)N3C)c1` [SN00797637], 5 µM.
As for `CN1C(=O)c2ccccc2Oc2cc(NC(=O)CNC(=O)c3ccco3)ccc21` [SN00797638], the IC50 was over 10 µM.
Still for that read-out and setting: the figure for `Cc1cccc(C(=O)Nc2ccc3c(c2)Oc2ccccc2C(=O)N3C)c1` [SN00797639] is over 10 µM.
Still for that read-out and setting: the figure for `CN1C(=O)c2ccccc2Oc2cc(NC(=O)COc3ccc(Cl)cc3)ccc21` [SN00797641] is over 10 µM; for `CN1C(=O)c2ccccc2Oc2cc(NC(=O)C3(c4ccccc4)CC3)ccc21` [SN00797642] it is over 10 µM; for `CN1C(=O)c2ccccc2Oc2cc(NC(=O)c3ccoc3)ccc21` [SN00797644] it is over 10 µM.
On to `CN1C(=O)c2ccccc2Oc2cc(NC(=O)c3cccc(Br)c3)ccc21` [SN00797645], for which the IC50 was over 10 µM.
Same read-out and setting: the figure for `COc1ccc(C(=O)Nc2ccc3c(c2)Oc2ccccc2C(=O)N3C)cc1OC` [SN00797646] is 8.6 µM; for `CN1C(=O)c2ccccc2Oc2cc(NC(=O)c3ccccc3)ccc21` [SN00797647] it is over 10 µM.
Still for that read-out and setting: the figure for `CN1C(=O)c2ccccc2Oc2cc(NC(=O)c3cc4cc(Cl)ccc4[nH]3)ccc21` [SN00797649] is over 10 µM.
On the same count and under the same terms, the figure for `COc1ccc(C(=O)Nc2ccc3c(c2)Oc2ccccc2C(=O)N3C(C)C)c(OC)c1` [SN00797650] is over 10 µM; for `CC(=O)Nc1cccc(C(=O)Nc2ccc3c(c2)Oc2ccccc2C(=O)N3C(C)C)c1C` [SN00797651] it is over 10 µM; for `CC(C)N1C(=O)c2ccccc2Oc2cc(NC(=O)CNC(=O)c3ccco3)ccc21` [SN00797652] it is over 10 µM.
On to `Cc1ccc(N2CC(C(=O)Nc3ccc4c(c3)Oc3ccccc3C(=O)N4C(C)C)CC2=O)cc1C` (centres unmarked) [SN00797653], for which the IC50 is over 10 µM.
Still for that read-out and setting: the result for `Cc1ccc(N2CC(C(=O)Nc3ccc4c(c3)Oc3ccccc3C(=O)N4C(C)C)CC2=O)cc1` (centres unmarked) [SN00797654] reads over 10 µM.
Regarding `CC(C)N1C(=O)c2ccccc2Oc2cc(NC(=O)C3CC(=O)N(c4ccccc4)C3)ccc21` (centres unmarked) [SN00797655], the IC50 is over 10 µM.
Same read-out and setting: the figure for `Cc1ccc(C(=O)NCC(=O)Nc2ccc3c(c2)Oc2ccccc2C(=O)N3C(C)C)cc1` [SN00797656] is over 10 µM; for `CC(C)N1C(=O)c2ccccc2Oc2cc(NC(=O)c3cccs3)ccc21` [SN00797657] it is over 10 µM.
Same read-out and setting: the result for `Cc1ccc(C(=O)Nc2ccc3c(c2)Oc2ccccc2C(=O)N3C(C)C)cc1` [SN00797658] reads over 10 µM; that for `CC(C)N1C(=O)c2ccccc2Oc2cc(NC(=O)C3CCCCC3)ccc21` [SN00797659], over 10 µM.
Still for that read-out and setting: the result for `CC(C)N1C(=O)c2ccccc2Oc2cc(NC(=O)c3ccccc3)ccc21` [SN00797661] reads over 10 µM; that for `COc1ccc(OCC(=O)Nc2ccc3c(c2)Oc2ccccc2C(=O)N3C(C)C)cc1` [SN00797662], over 10 µM.
Consider `Cc1ccc(C(=O)Nc2ccc3c(c2)Oc2ccccc2C(=O)N3C(C)C)cc1F` [SN00797663], for which the IC50 was over 10 µM.
Still for that read-out and setting: the figure for `CCn1ccc(C(=O)Nc2ccc3c(c2)Oc2ccccc2C(=O)N3C(C)C)n1` [SN00797664] is over 10 µM.

The test system is the same in a further test. The experiment in a line: Primary Giardia screen at 10 µM (live-cell imaging, automated counting). The class given is cell-based, Giardia duodenalis. The note with it: 24 h. A digest of the protocol:
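Compounds were tested once each at 10 μM final (0.2% DMSO) in culture medium under 3% O2, 5% CO2 in N2. Growth was read at 24 and 48 h by live-cell imaging with automated counting, and inhibition expressed as percent growth versus 0.2% DMSO vehicle after media-only background subtraction.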
As for `Cc1sc(C(=O)N2CCCC2)c2ncnc(NCc3cccc(Cl)c3)c12` [SN00803183], the “Average % Inhibition 24h” value is listed as 15.6%.

Still in this test, the particulars now being: 24 h, first singlicate assay.
On to `Cc1sc(C(=O)N2CCCC2)c2ncnc(NCc3cccc(Cl)c3)c12` [SN00803183], for which the “% Inhibition n=1 24h” value was 29.7%.

The same test, now with this note: 24 h, re-assessment.
Turning to `Cc1sc(C(=O)N2CCCC2)c2ncnc(NCc3cccc(Cl)c3)c12` [SN00803183], the “% Inhibition n=2 24h” value is recorded as 1.5%.

The test is the same for the next values; noted with them: 48 h.
On to `Cc1sc(C(=O)N2CCCC2)c2ncnc(NCc3cccc(Cl)c3)c12` [SN00803183], for which the “Average % Inhibition 48h” value turned out to be 27.6%.

Staying with this test, now noted: 48 h, first singlicate assay.
Regarding `CCN(CC)C(=O)c1cc(-c2cccs2)nc2cc(C)c(C)cc12` [SN00802800], the “% Inhibition n=1 48h” value is reported as 16.9%.
The same measure, in the same setting: the result for `COc1ccc(C2NC(=O)NC(C)=C2C(=O)c2ccccc2)cc1` (centres unmarked) [SN00802824] reads 12.9%; that for `CCOC(=O)c1csc(-n2nc(CC(C)C)cc2C(F)(F)F)n1` [SN00802831], 29.0%; that for `Cc1ccc(Cn2ccc3nc(N4CCCCC4)ncc3c2=O)cc1` [SN00802904], 15.1%.
On the same count and under the same terms, the result for `CCn1cc(C(=O)Nc2ccccc2O)c(=O)c2cc(F)c(N3CCN(C(C)=O)CC3)cc21` [SN00802927] reads 0.0%; that for `CCOc1ccc(S(=O)(=O)N(C)Cc2c(C)nn(C)c2C)cc1` [SN00802962], 2.3%; that for `Cc1cc(C)cc(N2CCN(CCCNC(=O)c3nc(-c4ccncn4)no3)CC2)c1` [SN00802991], 0.0%.
The same measure, in the same setting: the figure for `Cc1sc2ncn(CCN(C)C)c(=O)c2c1C(=O)Nc1ccc(S(N)(=O)=O)nc1` [SN00803001] is 26.5%.
Turning to `COc1ccc(CNC(=O)N2CCC(c3ccn4ncc(C(=O)N5CCOCC5)c4c3)CC2)cc1` [SN00803088], the “% Inhibition n=1 48h” value is recorded as 0.7%.
Still for that read-out and setting: the figure for `COc1ccc(CC(=O)NC2CCN(c3nc4c(s3)c(C)nn4-c3cccc(C)c3)CC2)cc1` [SN00803147] is 1.5%; for `Cc1nn(-c2ccc(F)cc2)c2nc(N3CCCN(C(=O)Cc4cccs4)CC3)sc12` [SN00803162] it is 27.0%; for `Cc1ccc(-n2nc(C)c3sc(N4CCCN(C(=O)c5ccc6c(c5)OCO6)CC4)nc32)cc1` [SN00803168] it is 0.0%.
Consider `Cc1sc(C(=O)N2CCCC2)c2ncnc(NCc3cccc(Cl)c3)c12` [SN00803183], for which the “% Inhibition n=1 48h” value was found to be 47.9%.
On the same count and under the same terms, the result for `Cc1sc(C(=O)N2CCCC2)c2ncnc(NCc3ccc(F)c(Cl)c3)c12` [SN00803192] reads 23.9%.
Consider `CCN1CCN(c2ccc3nnc(C(C)C)n3n2)CC1` [SN00803240], for which the “% Inhibition n=1 48h” value is recorded as 0.4%.
Still for that read-out and setting: the figure for `COc1ccccc1CNC(=O)CCN1C(=O)c2ccccc2C1=O` [SN00807762] is 30.7%; for `COc1ccc(N2C(=O)c3ccncc3C2=O)c(OC)c1` [SN00807767] it is 28.6%.
In the case of `CN(C)C(=O)N1CCN(Cc2nc3c(cnn3C)c(=O)[nH]2)CC1` [SN00807792], the “% Inhibition n=1 48h” value was 0.0%.
On the same count and under the same terms, the figure for `Cn1ncc2c(=O)[nH]c(CN3CCN(c4cnccn4)CC3)nc21` [SN00807797] is 0.0%; for `Cc1ccc(C(=O)N2CCCN(S(C)(=O)=O)CC2)c(=O)[nH]1` [SN00807837] it is 19.8%.
As for `O=C(CSc1ccccc1)NCC1(N2CCCCC2)CCOCC1` [SN00807846], the “% Inhibition n=1 48h” value was found to be 1.8%.
As to `Cc1nnc2n1CCN(C(=O)c1cnc(-c3ccccc3)s1)C2` [SN00807889], the “% Inhibition n=1 48h” value was 22.7%.
Still for that read-out and setting: the figure for `Cc1ncc2c(n1)CN(C(C)c1nnc(-c3ccccc3)o1)CC2` (centres unmarked) [SN00807918] is 13.7%; for `CCc1ncc2c(n1)CN(Cc1csc(-c3ncccn3)n1)CC2` [SN00807940] it is 9.1%; for `Cc1ncc2c(n1)CN(C(C)c1nc(-c3cccs3)no1)CC2` (centres unmarked) [SN00807951] it is 13.5%.
Still for that read-out and setting: the result for `Cc1oc(-c2ccco2)nc1CN1CCc2cnc(C(C)C)nc2C1` [SN00807954] reads 0.1%.

Staying with this test, now noted: 48 h, re-assessment.
For the compound `Cc1sc(C(=O)N2CCCC2)c2ncnc(NCc3cccc(Cl)c3)c12` [SN00803183], the “% Inhibition n=2 48h” value amounted to 7.3%.
